Data taken from ChEMBL document CHEMBL1201862, “PubChem BioAssay data set” (2004).
Values joined by “and” are separate entries in the source; they are usually repeats but may differ in a detail not shown here. Equal values may be shown once.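 How tested: cells in 96-well plates exposed to compound for 48 hours at five concentrations. GI50 = concentration required for 50% inhibition of growth.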 Active and inactive are the calls of the source. No stated cut-off is given here; in the data, active = GI50 up to about 1.1 µM and inactive = higher.

Columns and labels:
Assay in all cases: inhibition of tumour cell growth, NCI panel, 48 h
M14 = system: M14
EKVX = system: EKVX
SK-MEL-28 = system: SK-MEL-28
BT-549 = system: BT-549
RXF 393 = system: RXF 393
RPMI-8226 = system: RPMI-8226
UACC-257 = system: UACC-257
UO-31 = system: UO-31
IGROV-1 = system: IGROV-1
NCI-H460 = system: NCI-H460
SF-539 = system: SF-539
Hs-578T = system: Hs-578T
T47D = system: T47D
TK-10 = system: TK-10
LOX IMVI = system: LOX IMVI
SF-268 = system: SF-268
Malme-3M = system: Malme-3M
SK-MEL-5 = system: SK-MEL-5
SK-MEL-2 = system: SK-MEL-2
U-251 = system: U-251

Compound | GI50 (M14) | GI50 (EKVX) | GI50 (SK-MEL-28) | GI50 (BT-549) | GI50 (RXF 393) | GI50 (RPMI-8226) | GI50 (UACC-257) | GI50 (UO-31) | GI50 (IGROV-1) | GI50 (NCI-H460) | GI50 (SF-539) | GI50 (Hs-578T) | GI50 (T47D) | GI50 (TK-10) | GI50 (LOX IMVI) | GI50 (SF-268) | GI50 (Malme-3M) | GI50 (SK-MEL-5) | GI50 (SK-MEL-2) | GI50 (U-251)
Nc1c2c(nc3ccccc13)CCCc1ccccc1-2 | 7.91 µM (inactive) | 13.2 µM (inactive) | 9.75 µM (inactive) | 28.8 µM (inactive) | 11.4 µM (inactive) | 5.32 µM (inactive) | 12.7 µM (inactive) | 10.5 µM (inactive) | 9.46 µM (inactive) | 2.81 µM (inactive) | 8.83 µM (inactive) | 22.6 µM (inactive) | 11 µM (inactive) | 6.08 µM (inactive) | 8.69 µM (inactive) | 16.9 µM (inactive) | 18.5 µM (inactive) | 8.45 µM (inactive) | 13.4 µM (inactive) | 11.3 µM (inactive)
O=C1C=CC(=O)C(CNc2ccc(C(=O)OCc3ccccc3)cc2)=C1 | 7.05 µM (inactive) | 10.4 µM (inactive) | 5.11 µM (inactive) | 2.56 µM (inactive) | 2.68 µM (inactive) | 1.47 µM (inactive) | 11.5 µM (inactive) | 2.29 µM (inactive) | 3.27 µM (inactive) | 16.9 µM (inactive) | 2.72 µM (inactive) | 6.12 µM (inactive) | 1.77 µM (inactive) | 4.62 µM (inactive) | 4.14 µM (inactive) | 6.4 µM (inactive) | 2.67 µM (inactive) | 3.19 µM (inactive) | 14.9 µM (inactive) | 6.24 µM (inactive)
CN(C)/C=C/c1c2c(nc3ccccc13)C(=O)c1cccnc1C2=O | 0.218 µM (active) | 2.25 µM (inactive) | 0.552 µM (active) | 0.402 µM (active) | 0.705 µM (active) | 1.89 µM (inactive) | 0.668 µM (active) | 0.557 µM (active) | 1.42 µM (inactive) | 0.109 µM (active) | 0.3 µM (active) | 1.58 µM (inactive) | 3.97 µM (inactive) | 1.4 µM (inactive) | < 0.01 µM (active) | 0.41 µM (active) | 0.697 µM (active) | 0.151 µM (active) | 1.62 µM (inactive) | 0.353 µM (active)
CC(=O)Nc1cc2cc(N)ccc2oc1=O | > 100 µM (inactive) | > 100 µM (inactive) | > 100 µM (inactive) | > 100 µM (inactive) | 0.0411 µM (active) | > 100 µM (inactive) | > 100 µM (inactive) | > 100 µM (inactive) | > 100 µM (inactive) | > 100 µM (inactive) | > 100 µM (inactive) | > 100 µM (inactive) | > 100 µM (inactive) | > 100 µM (inactive) | > 100 µM (inactive) | > 100 µM (inactive) | > 100 µM (inactive) | > 100 µM (inactive) | > 100 µM (inactive) | > 100 µM (inactive)
CS[C@]12C(=O)C[C@@]3(C)[C@@H](CC[C@]3(O)C(=O)CO)[C@@H]1CCC1=CC(=O)CC[C@@]12C | 46 µM (inactive) | > 100 µM (inactive) | > 100 µM (inactive) | 68.2 µM (inactive) | > 100 µM (inactive) | 30.1 µM (inactive) | > 100 µM (inactive) | 95.5 µM (inactive) | > 100 µM (inactive) | > 100 µM (inactive) | > 100 µM (inactive) | > 100 µM (inactive) | > 100 µM (inactive) | > 100 µM (inactive) | > 100 µM (inactive) | > 100 µM (inactive) | > 100 µM (inactive) | > 100 µM (inactive) | > 100 µM (inactive) | > 100 µM (inactive)
CC1=C(C)C(=O)C(C2=C(C3=CC(=O)C(C)=C(C)C3=O)C(=O)c3ccccc3C2=O)=CC1=O | 1.82 µM (inactive) | 2.12 µM (inactive) | 2.3 µM (inactive) | 2.57 µM (inactive) | 1.71 µM (inactive) | 1.3 µM (inactive) | 1.99 µM (inactive) | 1.93 µM (inactive) | 2.48 µM (inactive) | 14.2 µM (inactive) | 2.36 µM (inactive) | 5.93 µM (inactive) | 2.96 µM (inactive) | 6.35 µM (inactive) | 2.41 µM (inactive) | 3.26 µM (inactive) | 1.12 µM (active) | 4.53 µM (inactive) | 2.32 µM (inactive) | 3.62 µM (inactive)
C=CCNC(=S)N/N=C1\C(=O)N(CN2CCOCC2)c2ccc([N+](=O)[O-])cc21 | 17.2 µM (inactive) | 15.4 µM (inactive) | > 100 µM (inactive) | 15.1 µM (inactive) | > 100 µM (inactive) | 33 µM (inactive) | 16.6 µM (inactive) | 6.18 µM (inactive) | 6.21 µM (inactive) | 4.16 µM (inactive) | 51.6 µM (inactive) | > 100 µM (inactive) | 17 µM (inactive) | 5.36 µM (inactive) | 32.3 µM (inactive) | 58.6 µM (inactive) | > 100 µM (inactive) | 9.73 µM (inactive) | > 100 µM (inactive) | 18.1 µM (inactive)
CC(=O)OC1COC(n2c(N)c(C#N)c(-c3ccccc3)c(C#N)c2=S)C(OC(C)=O)C1OC(C)=O (stereo not given) | 70.8 µM (inactive) and 64.1 µM (inactive) | 31.9 µM (inactive) and 29.9 µM (inactive) | 55.7 µM (inactive) and 36.6 µM (inactive) | 25.6 µM (inactive) and 22.8 µM (inactive) | 34.4 µM (inactive) and 33 µM (inactive) | 24.5 µM (inactive) and 28.6 µM (inactive) | 57.7 µM (inactive) and 80.9 µM (inactive) | 23.1 µM (inactive) and 36.5 µM (inactive) | > 100 µM (inactive) and 68.5 µM (inactive) | 46.8 µM (inactive) and 65.9 µM (inactive) | 40.2 µM (inactive) and 32.4 µM (inactive) | 45.3 µM (inactive) and 37.4 µM (inactive) | 33 µM (inactive) and 28.8 µM (inactive) | 30.2 µM (inactive) | 25.2 µM (inactive) and 27.6 µM (inactive) | 36 µM (inactive) | 34.3 µM (inactive) and 33.4 µM (inactive) | 37.9 µM (inactive) and 30.3 µM (inactive) | 20 µM (inactive) and 27.2 µM (inactive) | 48.8 µM (inactive) and 53.1 µM (inactive)
O=c1cc(-c2ccccc2)oc2c1ccc1nc3ccccc3c(O)c12 | > 100 µM (inactive) | > 100 µM (inactive) | > 100 µM (inactive) | 33.5 µM (inactive) | 31.6 µM (inactive) | 51.1 µM (inactive) | > 100 µM (inactive) | 80.2 µM (inactive) | > 100 µM (inactive) | 14.7 µM (inactive) | 33 µM (inactive) | 59.4 µM (inactive) | 40.8 µM (inactive) | 60.1 µM (inactive) | 12.5 µM (inactive) | 39.8 µM (inactive) | > 100 µM (inactive) | 47.6 µM (inactive) | > 100 µM (inactive) | 57.3 µM (inactive)
Nc1ccn(CC(O)c2cc3ccccc3[nH]2)c(=O)n1 (stereo not given) | > 100 µM (inactive) | > 100 µM (inactive) | > 100 µM (inactive) | > 100 µM (inactive) | > 100 µM (inactive) | > 100 µM (inactive) | > 100 µM (inactive) | > 100 µM (inactive) | > 100 µM (inactive) | > 100 µM (inactive) | > 100 µM (inactive) | > 100 µM (inactive) | > 100 µM (inactive) | > 100 µM (inactive) | > 100 µM (inactive) | > 100 µM (inactive) | > 100 µM (inactive) | > 100 µM (inactive) | > 100 µM (inactive) | > 100 µM (inactive)
CN1CC[N+](C)=C1c1ccccc1 | > 100 µM (inactive) | > 100 µM (inactive) | > 100 µM (inactive) | > 100 µM (inactive) | > 100 µM (inactive) | > 100 µM (inactive) | > 100 µM (inactive) | > 100 µM (inactive) | > 100 µM (inactive) | > 100 µM (inactive) | > 100 µM (inactive) | > 100 µM (inactive) | > 100 µM (inactive) | > 100 µM (inactive) | > 100 µM (inactive) | > 100 µM (inactive) | > 100 µM (inactive) | > 100 µM (inactive) | > 100 µM (inactive) | > 100 µM (inactive)
